14 compounds from PubChem BioAssay (NCI) can be followed below.

Common to all, as to assay: inhibition of tumour cell growth, NCI panel, 48 h
Experiment [1] relates to EKVX NSCLC.
In experiment [2] the test system is NCI/ADR-RES ovarian.
Experiment [3] concerns SF-539 CNS.
Experiment [4] deals with IGROV1 ovarian.
Experiment [5] deals with A498 renal.
Experiment [6] has as its system TK-10 renal.
The test system of experiment [7] is MCF7 breast.
The subject of experiment [8] is A549 NSCLC.
Experiment [9] concerns SNB-75 CNS.
For experiment [10], the system named is HT29 colon.

Values joined by “and” are separate entries in the source; they are usually repeats but may differ in a detail not shown here. Equal entries are not always repeated.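 Interpolation was linear, between the two tested concentrations surrounding the appropriate level; five concentrations were tested over 48 hours in 96-well plates. GI50 = concentration required for 50% inhibition of growth. Definition used: TGI = concentration required for complete inhibition of growth.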

`CN(C)CC1CCC/C(=C\c2ccc(OC(=O)/C=C/c3ccc(Cl)c(Cl)c3)cc2)C1=O` (centres undefined): the TGI stood at 23.5 µM in experiment [1]; 18.5 µM in experiment [2]; 7.19 µM in experiment [3]; 3.15 µM in experiment [4]; 32.1 µM in experiment [5]; 5.96 µM in experiment [6]. For the same compound, the TGI was determined as 5.79 µM in [7], 24.4 µM in experiment [8], 68.5 µM in experiment [9] and 4.68 µM in [10].
Take `COC(=O)NC(Cc1ccccc1)NC(C)=O` (centres undefined): the TGI in [1], in experiment [2], in experiment [3], in experiment [4], in experiment [5] and in experiment [6] was above 100 µM throughout. Moreover, the TGI in experiment [7], in experiment [8], in [9] and in experiment [10] was above 100 µM each time.
For the compound `O=C1CS(=O)(=O)C(c2cccc(Oc3ccccc3)c2)N1c1ccccc1` (centres undefined), the TGI came to 54.2 µM in experiment [1]; 83 µM in [2]; 39.6 µM in experiment [3]; 41.8 µM in experiment [5]; 60 µM in experiment [6]; 33.3 µM in experiment [7]. In addition, the TGI in [8], in experiment [9] and in [10] was above 100 µM in each case.
In the case of `COc1c2ccsc2c(OC)c2ccsc12`, the TGI in experiment [1], in [2], in experiment [3], in experiment [4], in experiment [5] and in [6] was above 100 µM each time. The TGI in experiment [7], in [8], in experiment [9] and in experiment [10] was above 100 µM each time.
Regarding `NC(=Nc1ccccc1)c1ccccc1N`, the TGI in experiment [1], in experiment [2], in [4], in [5], in experiment [6] and in experiment [7] was above 100 µM throughout. Moreover, the TGI in [8], in experiment [9] and in experiment [10] was above 100 µM throughout.
As for `CC(=O)Oc1cc(OC(C)=O)c2c(C)cc(=O)oc2c1`, the TGI in [1], in [2], in [3], in experiment [4], in experiment [5] and in experiment [6] was above 100 µM throughout. Besides, the TGI in [7], in [8], in [9] and in experiment [10] was above 100 µM throughout.
With `CC(=O)N(C(C)=O)n1c(Cc2ccc(C)cc2)nn(C(C)=O)c1=O`, the TGI in experiment [1], in experiment [2], in experiment [3], in [4], in experiment [5] and in experiment [6] was above 100 µM throughout. Also, the TGI in experiment [7], in [8], in experiment [9] and in [10] was above 100 µM in each case.
For `CC1=CCC[C@H]2[C@](C)(CC3=CC(=O)C(Sc4ccccc4)=CC3=O)[C@@H](C)CC[C@]12C`, the TGI is 38.9 µM in experiment [1]; 32.5 µM in experiment [2]; 34.6 µM in experiment [3]; 30.4 µM in [4]; 39 µM in experiment [5]; 51.7 µM in experiment [7]. For the same compound, the TGI in experiment [8] was found to be 33.3 µM; in [9] it was 54.5 µM. The values for the GI50 in experiment [4] and in experiment [7] were 16.2 µM and 22.6 µM, respectively.
Take `CC(=O)OCCCCn1cc(Cn2ccc(=O)n(Cc3cn(CCCCOC(C)=O)nn3)c2=O)nn1`: the TGI in experiment [1], in experiment [2], in experiment [3], in experiment [4], in experiment [5] and in [6] was above 100 µM throughout. The TGI in experiment [7], in experiment [8] and in experiment [9] was above 100 µM throughout.
Regarding `Nc1ccc2ccc(-c3ccc[nH]3)nc2n1`, the TGI in experiment [1], in [2], in [3], in experiment [4], in [5] and in experiment [6] was above 100 µM each time. In addition, the TGI in experiment [7], in experiment [8] and in experiment [9] was above 100 µM in each case.
Consider `O=C1/C(=C/c2ccccc2)NC(=S)N1CN1CCCCC1`, for which the TGI in [1], in experiment [2], in experiment [4], in [5], in experiment [7] and in experiment [8] was above 100 µM each time. Further, the TGI in experiment [9] and in [10] was above 100 µM throughout.
Turning to `CCOC(=O)CCC(NC(=O)Cc1ccc(Oc2nc3ccccc3nc2-c2ccccc2)cc1)C(=O)OCC` (centres undefined), the TGI in experiment [1], in experiment [2], in experiment [3], in [5], in experiment [6] and in [7] was above 100 µM throughout. Besides, the TGI in [8], in experiment [9] and in experiment [10] was above 100 µM each time.
As for `CC(=O)NC1(C(=O)N[C@@H](Cc2ccccc2)C(=O)NC2CCCCC2)Cc2ccc3ccccc3c2-c2c(ccc3ccccc23)C1`, the GI50 in [1] is 4.45 µM and 18.4 µM; in experiment [4] it was 16.2 µM and 39.8 µM; in experiment [8], 2.53 µM and 5.95 µM; in experiment [9] it was 7.84 µM and 1.43 µM. The TGI in [1], in [2], in [4], in [5], in experiment [7] and in experiment [8] was above 100 µM throughout. In addition, the TGI was > 100 µM and 36.6 µM in experiment [9]; > 100 µM and 57.5 µM in experiment [10].
With `COC1=C2C=[N+](C)C3C(=C2C=CC1OC)Cc1cc2c(cc13)OCO2` (centres undefined), the TGI was 35.6 µM in experiment [1]; above 100 µM in experiment [2]; 24 µM in [3]; above 100 µM in experiment [5]; 32.4 µM in [6]; 21.5 µM in experiment [7]. Further, the TGI in experiment [8] was 32.4 µM; in experiment [9] it was 28 µM; in [10], 26.3 µM.
